Values of other authors as cited in PMC8445767 (Bioorganic Chemistry, 2021).
pIC50: −log10 of the molar value. Like-named read-outs stand apart in the source and are kept apart here.

Key:
[1] = test system: herpes simplex virus type 1; conditions: read-out: IC50 against herpes simplex virus type 1
[2] = test system: herpes simplex virus type 1; conditions: read-out: IC50 against herpes simplex virus type 1; remark: listed apart in the source

In the case of Aspergilli peptide D [XI], the pIC50 [1] is given as 5.02.

For Simplicilliumtide J [XIV], the pIC50 [2] is given as 4.85.
